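Cultured in 96-well plates, cells were exposed to test compound for 48 hours across five concentrations. Definition used: TGI = concentration required for complete inhibition of growth.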

Among the test systems are CAKI-1 renal; ACHN renal; SF-268 CNS; NCI-H226 lung; OVCAR-8 ovarian; SK-OV-3 ovarian; UACC-257 melanoma; EKVX NSCLC; SK-MEL-5 melanoma; SNB-75 CNS.
Common to all, as to test: DTP human tumour cell line panel, 48 h

For the compound `C=CCOC(=O)C1C2OC3(C(C(=O)OC)=C2C(=O)OC)c2ccccc2CCC13` (stereo unspecified), the total growth inhibition concentration (TGI) in the experiment with CAKI-1 renal, with ACHN renal, in the experiment with SF-268 CNS, in the experiment on NCI-H226 lung, in the experiment on OVCAR-8 ovarian and with SK-OV-3 ovarian was above 10 µM in each case. In addition, the concentration for total growth inhibition (TGI) in the experiment on UACC-257 melanoma, with EKVX NSCLC and in the experiment with SK-MEL-5 melanoma was above 10 µM throughout.

As for `CC(NC(C)(C)C)C(=O)c1cccc(Cl)c1` (stereo unspecified), the total growth inhibition concentration (TGI) in the experiment with CAKI-1 renal, with ACHN renal, with SF-268 CNS, in the experiment on OVCAR-8 ovarian, in the experiment on SK-OV-3 ovarian and in the experiment on UACC-257 melanoma was above 100 µM throughout. Moreover, the TGI with SNB-75 CNS, with EKVX NSCLC and in the experiment with SK-MEL-5 melanoma was above 100 µM throughout.

Regarding `Cc1ccc2nc(NC(=O)/C(Cc3nc4ccc(Cl)cc4[nH]c3=O)=N\NC(C)(C)C)sc2c1`, the concentration for total growth inhibition (TGI) (commonly the concentration giving total growth inhibition) was 89.7 µM with CAKI-1 renal; above 100 µM in the experiment on ACHN renal; above 100 µM in the experiment on SF-268 CNS; 91.3 µM in the experiment on NCI-H226 lung; above 100 µM in the experiment with OVCAR-8 ovarian; above 100 µM in the experiment on SK-OV-3 ovarian. Further, the results for the concentration for total growth inhibition (TGI) in the experiment with UACC-257 melanoma and in the experiment with SNB-75 CNS were above 100 µM and 83.1 µM, respectively.

Turning to `Nc1ccc(CCN2CCN(CCCc3ccccc3)CC2)cc1`, the TGI in the experiment with CAKI-1 renal, with ACHN renal, with SF-268 CNS, with NCI-H226 lung, in the experiment with OVCAR-8 ovarian and in the experiment on SK-OV-3 ovarian was above 100 µM in each case. The TGI with UACC-257 melanoma, in the experiment on EKVX NSCLC and in the experiment on SK-MEL-5 melanoma was above 100 µM each time.

Regarding `CC1(O)OC(=O)C2=C1CCC1C2CCC2(C)C(O)CCC12` (stereo unspecified), the TGI with CAKI-1 renal, in the experiment with ACHN renal, in the experiment on SF-268 CNS, in the experiment with NCI-H226 lung, in the experiment on OVCAR-8 ovarian and with UACC-257 melanoma was above 100 µM throughout. The TGI with EKVX NSCLC and in the experiment on SK-MEL-5 melanoma was above 100 µM in each case.

On to `COC(=O)C1=C(OC(=O)c2ccccc2)C(C(=O)OC)[C@]2(O)[C@@H](C(=O)OC)[C@H]1C[C@@H](c1ccccc1)[C@@H]2C(=O)OC` (stereo partly specified), for which the concentration for total growth inhibition (TGI) in the experiment on CAKI-1 renal is above 100 µM; with ACHN renal, 72.4 µM; in the experiment with SF-268 CNS, 36.8 µM; in the experiment with NCI-H226 lung, 19.2 µM; with OVCAR-8 ovarian, 20.3 µM; with SK-OV-3 ovarian it was 48.3 µM. The figures for the total growth inhibition concentration (TGI) with UACC-257 melanoma, in the experiment with EKVX NSCLC and in the experiment with SK-MEL-5 melanoma were 84.6 µM, above 100 µM and 17.4 µM, respectively.

On to `COc1ccc(N=C2C(=Nc3ccc(OC)cc3)N(c3ccccc3)C(=S)N2N=C=C2Sc3ccccc3N2C)cc1`, for which the TGI in the experiment with CAKI-1 renal, with ACHN renal, with SF-268 CNS, in the experiment on NCI-H226 lung, in the experiment on OVCAR-8 ovarian and in the experiment with SK-OV-3 ovarian was above 100 µM throughout. Besides, the TGI with UACC-257 melanoma, in the experiment with EKVX NSCLC and in the experiment on SK-MEL-5 melanoma was above 100 µM each time.

With `CCC(c1c[nH]c2ccc(Br)cc12)c1c[nH]c2ccc(Br)cc12`, the total growth inhibition concentration (TGI) was 6.58 µM with CAKI-1 renal; 12.8 µM with ACHN renal; 20.7 µM in the experiment on SF-268 CNS; 44 µM in the experiment on NCI-H226 lung; 21.2 µM with OVCAR-8 ovarian; 24.1 µM with SK-OV-3 ovarian. Besides, the TGI in the experiment on UACC-257 melanoma worked out at 23.9 µM; in the experiment on EKVX NSCLC, 17.2 µM; with SK-MEL-5 melanoma, 26.8 µM.

Regarding `COc1cc([C@@H]2c3cc(O)c(OC)cc3C=C(C(N)=O)[C@H]2C(N)=O)ccc1O`, the total growth inhibition concentration (TGI) in the experiment on CAKI-1 renal, with ACHN renal, with SF-268 CNS, in the experiment with NCI-H226 lung, in the experiment on OVCAR-8 ovarian and in the experiment on UACC-257 melanoma was above 100 µM each time. Also, the TGI in the experiment with SNB-75 CNS, in the experiment on EKVX NSCLC and with SK-MEL-5 melanoma was above 100 µM in each case.

With `CCOC(=O)[C@H](Cc1ccc(O)cc1)N=C1[C@H]2CCC[C@]1(O)[C@@](C)([N+](=O)[O-])C2`, the TGI with CAKI-1 renal, in the experiment on ACHN renal, in the experiment on NCI-H226 lung, in the experiment on OVCAR-8 ovarian, in the experiment on SK-OV-3 ovarian and in the experiment on UACC-257 melanoma was above 100 µM in each case. Also, the TGI in the experiment on EKVX NSCLC and in the experiment on SK-MEL-5 melanoma was above 100 µM throughout.

`CN(C)CCCN1c2ccccc2CCc2ccc([N+](=O)[O-])cc21`: the TGI was above 100 µM with CAKI-1 renal; above 100 µM with ACHN renal; above 100 µM in the experiment on SF-268 CNS; 90.4 µM in the experiment with NCI-H226 lung; above 100 µM in the experiment with OVCAR-8 ovarian; above 100 µM in the experiment on SK-OV-3 ovarian. For the same compound, the total growth inhibition concentration (TGI) with UACC-257 melanoma is 31.8 µM; in the experiment with EKVX NSCLC, above 100 µM; in the experiment with SK-MEL-5 melanoma it was 31.4 µM.

The values above are taken from PubChem BioAssay (NCI).
